What was measured:
[1] = molecular target: Trypanothione reductase (Trypanosoma cruzi) (UniProt P28593); experiment: Inhibition of Trypanosoma cruzi recombinant trypanothione reductase at 40 uM by spectrophotometry
[2] = tested on: Trypanosoma cruzi; experiment: Antitrypanosomal activity against epimastigotes of Trypanosoma cruzi Tulahuen 2 at 25 uM relative to control; type: functional; conditions: read-out: GI
[3] = tested on: Trypanosoma cruzi; experiment: Antitrypanosomal activity against epimastigotes of Trypanosoma cruzi Tulahuen 2; type: functional, organism-based
[4] = tested on: Trypanosoma cruzi; experiment: Antitrypanosomal activity against epimastigotes of Trypanosoma cruzi CL Brener; type: functional, organism-based
[5] = molecular target: Cruzipain (Trypanosoma cruzi, UniProt P25779); experiment: Inhibition of Trypanosoma cruzi Tulahuen 2 epimastigote cruzipain by spectrophotometry
Chain of Cruzipain (P25779 whole entry): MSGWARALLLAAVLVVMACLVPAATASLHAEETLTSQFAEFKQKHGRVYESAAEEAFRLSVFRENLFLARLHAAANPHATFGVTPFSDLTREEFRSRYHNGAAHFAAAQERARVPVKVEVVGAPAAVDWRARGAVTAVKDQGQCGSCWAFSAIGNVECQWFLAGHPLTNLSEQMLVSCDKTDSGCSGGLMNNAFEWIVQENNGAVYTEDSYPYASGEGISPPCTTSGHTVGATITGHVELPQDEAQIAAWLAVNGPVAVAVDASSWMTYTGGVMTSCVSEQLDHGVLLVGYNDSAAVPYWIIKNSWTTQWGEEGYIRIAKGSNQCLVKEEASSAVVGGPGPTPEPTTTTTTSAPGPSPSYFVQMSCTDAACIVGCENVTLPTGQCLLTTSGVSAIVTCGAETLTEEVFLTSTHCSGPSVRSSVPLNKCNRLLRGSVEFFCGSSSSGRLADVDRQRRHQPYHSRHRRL

[6] = Selectivity index, ratio of IC50 for mouse J774 cells to IC50 for epimastigotes of Trypanosoma cruzi Tulahuen 2; type: toxicity, cell-based; conditions: read-out: Ratio IC50
[7] = tested on: J774; experiment: Cytotoxicity against mouse J774 cells after 48 hrs by MTT assay; type: cell-based; conditions: J774, 48 h
[8] = molecular target: Trypanothione reductase (Trypanosoma cruzi) (UniProt P28593); experiment: Inhibition of Trypanosoma cruzi recombinant trypanothione reductase at 100 uM by spectrophotometry
[9] = molecular target: Trypanothione reductase (Trypanosoma cruzi) (UniProt P28593); experiment: Inhibition of Trypanosoma cruzi recombinant trypanothione reductase at […] by spectrophotometry
[10] = molecular target: Cruzipain (Trypanosoma cruzi) (UniProt P25779); experiment: Inhibition of Trypanosoma cruzi Tulahuen 2 epimastigote cruzipain at 100 uM by spectrophotometry
Chain of Cruzipain (Trypanosoma cruzi) (P25779 123-467 limits assumed): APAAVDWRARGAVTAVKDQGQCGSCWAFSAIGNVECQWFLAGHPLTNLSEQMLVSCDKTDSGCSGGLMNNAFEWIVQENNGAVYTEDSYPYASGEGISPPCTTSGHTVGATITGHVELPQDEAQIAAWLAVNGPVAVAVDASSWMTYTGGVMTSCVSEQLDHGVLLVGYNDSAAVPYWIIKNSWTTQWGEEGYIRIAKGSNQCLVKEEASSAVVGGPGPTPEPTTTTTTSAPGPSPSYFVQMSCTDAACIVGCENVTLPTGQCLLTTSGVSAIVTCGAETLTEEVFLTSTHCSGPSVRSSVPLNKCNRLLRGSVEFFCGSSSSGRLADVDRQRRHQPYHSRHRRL

Chain of Trypanothione reductase (Trypanosoma cruzi) (P28593 whole entry, looked up): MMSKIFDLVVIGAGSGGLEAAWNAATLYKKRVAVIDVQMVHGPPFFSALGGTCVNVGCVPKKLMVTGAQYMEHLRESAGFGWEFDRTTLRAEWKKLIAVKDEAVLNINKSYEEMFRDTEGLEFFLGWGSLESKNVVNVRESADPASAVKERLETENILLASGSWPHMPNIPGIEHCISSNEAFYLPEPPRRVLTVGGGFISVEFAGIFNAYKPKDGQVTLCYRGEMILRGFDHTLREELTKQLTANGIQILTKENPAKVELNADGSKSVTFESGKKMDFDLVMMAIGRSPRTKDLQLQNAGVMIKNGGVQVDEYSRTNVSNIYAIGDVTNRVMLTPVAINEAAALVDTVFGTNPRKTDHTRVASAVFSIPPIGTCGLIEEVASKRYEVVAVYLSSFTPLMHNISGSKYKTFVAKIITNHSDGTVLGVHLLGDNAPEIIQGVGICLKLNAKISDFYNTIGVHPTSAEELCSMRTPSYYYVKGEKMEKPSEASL

| SMILES | inhibition [1] | IC50 [3] | IC50 [4] | IC50 [5] | inhibition [8] | inhibition [9] | inhibition [10] | inhibition of growth at 25 µM [2] | selectivity ratio [6] | IC50 [7] |
| --- | --- | --- | --- | --- | --- | --- | --- | --- | --- | --- |
| CN(C/C=C/C#CC(C)(C)C)Cc1cccc2ccccc12 [TERBINAFINE] | – | – | – | – | – | – | – | 100% | 5.1 | – |
| O=C(Cn1ccnc1[N+](=O)[O-])NCc1ccccc1 [BENZNIDAZOLE] | – | – | – | – | – | – | – | 100% | – | – |
| [O-][n+]1onc2ccc(/C=N/N=C/c3ccccc3O)cc21 | – | > 25 µM | – | 68 µM | – | – | – | 17% | – | – |
| [O-][n+]1onc2ccc(/C=N/N=C/c3cc(Br)ccc3O)cc21 | – | 25 µM | – | 73 µM | – | – | – | 48% | < 3.4 | 84 µM |
| CC(=O)N1CCN(c2ccc(OCC3COC(Cn4ccnc4)(c4ccc(Cl)cc4Cl)O3)cc2)CC1 (centres undefined) [KETOCONAZOLE] | – | – | – | – | – | – | – | 100% | < 5 | < 50 µM |
| C=CCNC(=S)N/N=C/c1ccc2no[n+]([O-])c2c1 | 13% | > 25 µM | – | > 100 µM | 9% | – | 36% | 35% | – | – |
| CC1CS(=O)(=O)CCN1/N=C/c1ccc([N+](=O)[O-])o1 (centres undefined) [NIFURTIMOX] | – | – | – | – | – | – | – | 100% | – | – |

The next lines start with results.

| inhibition [1] | IC50 [3] | IC50 [4] | IC50 [5] | inhibition [8] | inhibition [9] | inhibition [10] | SMILES | inhibition of growth at 25 µM [2] | selectivity ratio [6] | IC50 [7] |
| --- | --- | --- | --- | --- | --- | --- | --- | --- | --- | --- |
| 30% | > 25 µM | 38.2 µM | 32 µM | 50% | – | – | N=C(N)N/N=C/c1ccc(OCc2ccc3no[n+]([O-])c3c2)cc1 | 40% | < 2 | < 50 µM |
| – | 8.7 µM | – | – | 19% | – | – | O=Cc1ccc(OCc2ccc3no[n+]([O-])c3c2)cc1 | 98% | 6.9 | 60 µM |
| – | – | 19.8 µM | 43 µM | 0% | 0% | – | NC(=S)N/N=C/c1ccc(OCc2ccc3no[n+]([O-])c3c2)cc1 | 70% | 26.7 | 400 µM |
| – | > 25 µM | – | > 100 µM | 0% | 0% | 23% | NC(=O)N/N=C/c1ccc(OCc2ccc3no[n+]([O-])c3c2)cc1 | 25% | – | – |
| – | 6.8 µM | – | – | 19% | – | – | N=C(N/N=C/c1ccc(O)cc1)SCc1ccc2no[n+]([O-])c2c1 | 100% | 20.9 | 142 µM |
| – | 8.9 µM | 2.6 µM | 78 µM | 0% | 0% | – | [O-][n+]1onc2ccc(/C=N/NC(=S)Nc3ccccc3)cc21 | 93% | < 5.6 | < 50 µM |
| – | 25 µM | – | 100 µM | – | – | – | [O-][n+]1onc2ccc(/C=N/N=C/c3ccc(O)cc3)cc21 | 52% | – | – |
| 9% | > 25 µM | – | > 100 µM | 19% | – | 7% | NC(=S)N/N=C/c1ccc2no[n+]([O-])c2c1 | 5% | – | – |
